This passage reports IC50 results from ChEMBL document CHEMBL1122097 (J Med Chem, 1982).

SMILES strings stand for the structures.

Experiment [1] is described as follows: Tested in vitro for its ability to displace 3[H] clozapine from non-muscarinic receptor in rat brain. It counts as tissue-based.
The next experiment concerns the target Dopamine receptor. Kind of experiment: Displacement of 3[H]spiroperidol from Dopamine receptor in rat brain.
Experiment [2] addresses Muscarinic acetylcholine receptor. Kind of experiment: Tested in vitro for its ability to displace 3[H] clozapine from Muscarinic acetylcholine receptor in rat brain. It counts as tissue-based.

As to `CN1CCN(C2=Cc3cc(Cl)ccc3Cc3ccccc32)CC1`, the concentration for half-maximal inhibition (IC50) in experiment [1] is 13 nM. That is a double-digit nanomolar value.

Turning to `CN1CCN(C2=Cc3ccccc3Oc3ccccc32)CC1`, the 50% inhibitory concentration (IC50) on Dopamine receptor was 1500 nM; in experiment [2], 2290 nM; in experiment [1], 4 nM.

As for `CN1CCN(C2=Cc3ccccc3Cc3ccc(Cl)cc32)CC1`, the IC50 in experiment [1] worked out at 10 nM.

Consider `CN1CCN(C2=Cc3ccccc3Cc3ccccc32)CC1`, for which the IC50 in experiment [1] came out at 3.7 nM.

Turning to `CN1CCN(C2=Nc3cc(Cl)ccc3Nc3ccccc32)CC1` [CLOZAPINE], in experiment [1], the IC50 came to 13 nM.

Take `CN1CCN(C2=Cc3cc(Cl)ccc3Oc3ccccc32)CC1`: the IC50 on Dopamine receptor came out at 357 nM; in experiment [2], 1970 nM; in experiment [1], 9.4 nM.

Consider `CN1CCN(C2=Nc3ccccc3Nc3ccccc32)CC1`, for which the IC50 at Dopamine receptor was more than 10000 nM; in experiment [1] it was 25 nM.

`CN1CCN(C2=Nc3ccccc3Nc3ccc(Cl)cc32)CC1` [ISOCLOZAPINE]: the concentration for half-maximal inhibition (IC50) in experiment [2] turned out to be 28 nM; in experiment [1], 17 nM.

Consider `CN1CCN(C2=Cc3ccccc3Oc3ccc(Cl)cc32)CC1`, for which the IC50 at Dopamine receptor was found to be 27 nM; in experiment [2], 2027 nM; in experiment [1], 7.3 nM.
